The experiment deals with EPI/PAR and RP fat pads. The experiment is described as follows: EPI/PAR and RP fat pad apoptosis, % DNA fragmentation (Example 2). Format: in vivo. The following applies: 200 ppm in diet, 21 days, WT and GDF-8 KO mice. On the procedure: Animals: Twelve-week old male (n=10) and female (n=10) GDF-8 (−/−) knockout mice and male (n=10) and female (n=10) GDF-8 (+/+) WT mice were used in the study. GDF-8 knockout mice, which were derived from the 129/SvJ mouse strain, were originally obtained from MetaMorphix Inc. and were bred in-house for the study. Mice were housed singly in suspended wire cages in a room maintained at 22±1 C and with a 12:12 hour light/dark cycle. Mice were provided ground rodent chow (ProLab® RMH 2500; Purina Mills, St. Louis, Mo.) and water ad libitum. Mice were cared for in accordance with the Guide for the Care and Use of Laboratory Animals.
Materials: Clenbuterol (Sigma Chemical Company, St. Louis, Mo., item# C5423), was thoroughly mixed into the ground rodent chow to provide a 200 ppm concentration.
DNA Isolation and Apoptosis Assay: DNA was isolated from fresh fat tissues and separated into two fractions: fragmented and genomic DNA. The samples were first run on an agarose gel to identify a ladder pattern of internucleosomal DNA degradation, which is characteristic of apoptosis (Qian, H., M. J. Azain, M. M. Compton, D. L. Hartzell, G. J. Hausman, and C. A. Baile, Brain administration of leptin causes deletion of adipocytes by apoptosis. Endocrinology, 1998. 139(2): p. 791-4). Apoptosis was then quantified as the ratio of fragmented- to total-DNA as previously described (Gullicksen, P. S., R. G. Dean, and C. A. Baile, Detection of DNA Fragmentation and Apoptotic Proteins, and Quantification of Uncoupling Protein Expression by Real-Time RT-PCR in Adipose Tissue. J Biochem Biophys Methods, 2004. 58(1): p. 1-13). […] DNA content was measured using PicoGreen (Molecular Probes, Inc., Eugene, Oreg.) on a SpectraMax Gemini Spectrofluorometer (Molecular Devices, Sunnyvale, Calif.). […] Apoptosis was verified by the presence of a DNA ladder pattern, which was visualized by a Fluor Chem 8000 fluorescence imaging system (Alpha Innotech, San Leandro, Calif.).
Statistical Analysis: The study was analyzed as a 2×2×2 factorial design (N=5/cell). […]

The values that follow come from US20040235922A1, “Compositions and methods for inducing adipose tissue cell death” (priority 2003, published 2004).

For `CC(C)(C)NCC(O)c1cc(Cl)c(N)c(Cl)c1` (stereo not drawn) [Clenbuterol, clenbuterol], the “Adipocyte apoptosis in EPI/PAR and RP fat pads compared to control” value was “increased”. Further, the “% DNA Fragmentation EPI/PAR” value (Mean ± SEM, control 0.9 ± 0.1) is recorded as 2.5 ± 0.2 %. Besides, the “% DNA Fragmentation RP” value (Mean ± SEM, control 0.9 ± 0.2) stood at 2.5 ± 0.2 %.
